These results are taken from patent US10875876B2, “Cyclized sulfamoylarylamide derivatives and the use thereof as medicaments for the treatment of hepatitis B” (priority 2015, dated 2020).

What is called EC50 is the concentration giving half of the maximal effect. What is called CC50 is the concentration giving 50% cytotoxicity. What is called melting point is the temperature, or range, at which the solid turns liquid.

Molecules are shown by their SMILES. Where two headings read alike, the source gives them in different places.

Data set [1] relates to HBV. In words: anti HBV activity, HepG2.117 cell line, intracellular HBV DNA by realtime PCR. It is filed as cell-based. Conditions: HepG2.117 cell line (Tet-off), 3 days of treatment, intracellular HBV DNA quantified by realtime PCR, read-out: HBV-AVE-HepG2.117 EC50. In outline:
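Readout was intracellular HBV DNA by real-time PCR (HBV-specific primers and probe) after 3 days of compound exposure. Serial dilutions were tested in duplicate on HepG2.117 cells, a stable inducible HBV producer in which replication is switched on when doxycycline is absent.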

Data set [2] relates to HepG2 cells. Description: Cytotoxicity in HepG2 cells, Resazurin assay. Conditions: read-out: TOX-HepG2-4 d CC50; HepG2 cells incubated for 4 days, viability by Resazurin assay. On the technique in general: Resazurin is reduced to fluorescent resorufin, in cell work by metabolically active cells.
Data set [3] in a line: Cytotoxicity in HepG2 cells, Resazurin assay. The following applies: human, HepG2 cells, TOX-HepG2-4 d CC50 (μM), HepG2 cells incubated for 4 days, viability by Resazurin assay.
The mark [4] stands for this setting: Hepatitis B virus, HepG2.117, 72 h.

As to `CC(NCC(F)(F)F)C1CCc2c(cn(C)c2C(=O)Nc2cc(F)c(F)c(F)c2)S(=O)(=O)N1` (single isomer, unassigned) [Compound 218d, 7-methyl-1,1-dioxo-3-[1-(2,2,2-trifluoroethylamino)ethyl]-N-(3,4,5-trifluorophenyl)-2,3,4,5-tetrahydropyrrolo[3,4-f]thiazepine-6-carboxamide], the half-maximal effective concentration (EC50) in data set [1] came to 21 nM. Further, the cytotoxic concentration (CC50) in data set [2] was greater than 25000 nM.
For `Cn1cc2c(c1C(=O)Nc1ccc(F)c(F)c1)OC[C@H](C(O)C1CC1)NS2(=O)=O` (stereo partly drawn) [Compound 105b, (3R)-3-[cyclopropyl(hydroxy)methyl]-N-(3,4-difluorophenyl)-7-methyl-1,1-dioxo-3,4-dihydro-2H-pyrrolo[3,4-b][1,4,5]oxathiazepine-6-carboxamide] the same measures were 11 nM and greater than 25000 nM.
For `C[C@@H]1Oc2c(cn(C)c2C(=O)Nc2ccnc(Br)c2)S(=O)(=O)N[C@@H]1CO` [compound 236] the same measures were 340 nM and greater than 25000 nM.
Consider `Cn1cc2c(c1C(=O)Nc1ccc(F)c(F)c1)OCC(C1CCOCC1)NS2(=O)=O` (single isomer, unassigned) [Compound 89b, N-(3,4-difluorophenyl)-7-methyl-1,1-dioxo-3-tetrahydropyran-4-yl-3,4-dihydro-2H-pyrrolo[3,4-b][1,4,5]oxathiazepine-6-carboxamide], for which the concentration giving a half-maximal response (EC50) in data set [1] came out at 17 nM. In addition, in data set [2], the cytotoxic concentration (CC50) is greater than 25000 nM.
Regarding `CCC1(C)COc2c(cn(C)c2C(=O)Nc2ccc(F)c(F)c2)S(=O)(=O)N1` (single isomer, unassigned) [Compound 134b, N-(3,4-difluorophenyl)-3-ethyl-3,7-dimethyl-1,1-dioxo-2,4-dihydropyrrolo[3,4-b][1,4,5]oxathiazepine-6-carboxamide], the 50% effective concentration (EC50) in data set [1] is 7 nM. In data set [2], the cytotoxic concentration (CC50) is greater than 25000 nM.
Take `CC(C)C(O)C1COc2c(cn(C)c2C(=O)Nc2ccc(F)c(F)c2)S(=O)(=O)N1` (single isomer, unassigned) [Compound 114b, N-(3,4-difluorophenyl)-3-(1-hydroxy-2-methyl-propyl)-7-methyl-1,1-dioxo-3,4-dihydro-2H-pyrrolo[3,4-b][1,4,5]oxathiazepine-6-carboxamide]: in data set [1], the EC50 is 8 nM. Also, in data set [2], the 50% cytotoxic concentration (CC50) was greater than 25000 nM.
For `Cn1cc2c(c1C(=O)Nc1cc(F)c(F)c(F)c1)OCC(C)(CO)NS2(=O)=O` (single isomer, unassigned) [Compound 214b, 3-(hydroxymethyl)-3,7-dimethyl-1,1-dioxo-N-(3,4,5-trifluorophenyl)-2,4-dihydropyrrolo[3,4-b][1,4,5]oxathiazepine-6-carboxamide] the same measures were 22 nM and greater than 25000 nM.
`Cn1cc2c(c1C(=O)Nc1ccc(F)c(F)c1)OC[C@@H](C(C)(C)O)NS2(=O)=O` [Compound 94, (3S)—N-(3,4-difluorophenyl)-3-(1-hydroxy-1-methyl-ethyl)-7-methyl-1,1-dioxo-3,4-dihydro-2H-pyrrolo[3,4-b][1,4,5]oxathiazepine-6-carboxamide] returned a melting point of 234.1 °C. Besides, the EC50 in data set [1] (setting [4]) was 80 nM. Also, in data set [3], the CC50 at 4 days was greater than 25 µM.
Take `C[C@H](O)[C@H]1C=Cc2c(cn(C)c2C(=O)Nc2ccc(F)c(Cl)c2)S(=O)(=O)N1` [Compound 194, (3R)—N-(3-chloro-4-fluoro-phenyl)-3-[(1S)-1-hydroxyethyl]-7-methyl-1,1-dioxo-2,3-dihydropyrrolo[3,4-f]thiazepine-6-carboxamide]: the melting point was 211.3 °C. Besides, the EC50 in data set [1] (setting [4]) was found to be 6 nM. The CC50 at 4 days in data set [3] was greater than 25 µM.
For `Cn1cc2c(c1C(=O)Nc1ccc(F)c(Br)c1F)CCC(C(C)(C)O)NS2(=O)=O` (stereo not drawn) [Compound 179, N-(3-bromo-2,4-difluoro-phenyl)-3-(1-hydroxy-1-methyl-ethyl)-7-methyl-1,1-dioxo-2,3,4,5-tetrahydropyrrolo[3,4-f]thiazepine-6-carboxamide] the same measures were 236.8 °C, 21 nM and greater than 25 µM.
In turn, `Cn1cc2c(c1C(=O)Nc1ccc(F)c(C#N)c1)OC[C@](C)(c1ccccn1)NS2(=O)=O` [Compound 128, (3S)—N-(3-cyano-4-fluoro-phenyl)-3,7-dimethyl-1,1-dioxo-3-(2-pyridyl)-2,4-dihydropyrrolo[3,4-b][1,4,5]oxathiazepine-6-carboxamide] displayed a melting point of 235 °C. Also, the half-maximal effective concentration (EC50) in data set [1] (setting [4]) amounted to 24 nM. Further, the cytotoxic concentration (CC50) at 4 days in data set [3] is greater than 25 µM.
The molecule `C[C@H](O)[C@H]1CCc2c(cn(C)c2C(=O)Nc2ccc(F)c(C(F)F)c2F)S(=O)(=O)N1` [Compound 188, (3R)—N-[3-(difluoromethyl)-2,4-difluoro-phenyl]-3-[(1S)-1-hydroxyethyl]-7-methyl-1,1-dioxo-2,3,4,5-tetrahydropyrrolo[3,4-f]thiazepine-6-carboxamide] returned a melting point of 277.1 °C. The EC50 in data set [1] (setting [4]) was found to be 11 nM. For the same molecule, in data set [3], the CC50 at 4 days is greater than 25 µM.
For `CCC(O)[C@@H]1COc2c(cn(C)c2C(=O)Nc2ccc(F)c(C#N)c2)S(=O)(=O)N1` (stereo in doubt) [Compound 163, N-(3-cyano-4-fluoro-phenyl)-3-(1-hydroxypropyl)-7-methyl-1,1-dioxo-3,4-dihydro-2H-pyrrolo[3,4-b][1,4,5]oxathiazepine-6-carboxamide] the same measures were 247 °C, greater than 125 nM and greater than 25 µM.
For `Cn1cc2c(c1C(=O)Nc1ccc(F)c(C(F)F)c1F)OC[C@H](C(C)(C)O)NS2(=O)=O` [Compound 182, (3R)—N-[3-(difluoromethyl)-2,4-difluoro-phenyl]-3-(1-hydroxy-1-methyl-ethyl)-7-methyl-1,1-dioxo-3,4-dihydro-2H-pyrrolo[3,4-b][1,4,5]oxathiazepine-6-carboxamide] the same measures were 182.1 °C, 10 nM and greater than 25 µM.
Regarding `Cc1cc(CC2(C)COc3c(cn(C)c3C(=O)Nc3ccc(F)c(C(F)F)c3)S(=O)(=O)N2)n(C)n1` (single isomer, unassigned) [Compound 176b, N-[3-(difluoromethyl)-4-fluoro-phenyl]-3-[(2,5-dimethylpyrazol-3-yl)methyl]-3,7-dimethyl-1,1-dioxo-2,4-dihydropyrrolo[3,4-b][1,4,5]oxathiazepine-6-carboxamide], in data set [2], the CC50 was greater than 25000 nM.
`Cc1cc(NC(=O)c2c3c(cn2C)S(=O)(=O)N[C@@H]([C@H](C)O)CC3)ccc1F` [Compound 112, (3R)—N-(4-fluoro-3-methyl-phenyl)-3-[(1S)-1-hydroxyethyl]-7-methyl-1,1-dioxo-2,3,4,5-tetrahydropyrrolo[3,4-f]thiazepine-6-carboxamide] came in with a melting point of 287.3 °C. In data set [1] (setting [4]), the EC50 was determined as 3 nM. Also, the CC50 at 4 days in data set [3] was greater than 25 µM.
In turn, `Cc1cccc(C2(C)COc3c(cn(C)c3C(=O)Nc3ccc(F)c(F)c3)S(=O)(=O)N2)n1` (single isomer, unassigned) [Compound 168a, N-(3,4-difluorophenyl)-3,7-dimethyl-3-(6-methyl-2-pyridyl)-1,1-dioxo-2,4-dihydropyrrolo[3,4-b][1,4,5]oxathiazepine-6-carboxamide] came in with a melting point of 221.9 °C. Besides, the EC50 in data set [1] is greater than 125 nM. Moreover, in data set [3], the CC50 at 4 days was greater than 25 µM.
Consider `Cn1cc2c(c1C(=O)Nc1ccc(F)c(F)c1)C=CC(C(F)(F)F)NS2(=O)=O` (stereo not drawn) [Compound 8, N-(3,4-difluorophenyl)-7-methyl-1,1-dioxo-3-(trifluoromethyl)-2,3-dihydropyrrolo[3,4-f]thiazepine-6-carboxamide], for which the melting point is 245.6 °C. In addition, the concentration giving a half-maximal response (EC50) in data set [1] (setting [4]) came out at 47 nM. Also, in data set [3], the 50% cytotoxic concentration (CC50) at 4 days is greater than 25 µM.
Molecule `Cn1cc2c(c1C(=O)Nc1ccnc(C(F)F)c1)OCC(C)(C)NS2(=O)=O` [Compound 158, N-[2-(difluoromethyl)-4-pyridyl]-3,3,7-trimethyl-1,1-dioxo-2,4-dihydropyrrolo[3,4-b][1,4,5]oxathiazepine-6-carboxamide] registered a melting point of 229.9 °C. In data set [1] (setting [4]), the EC50 was found to be 31 nM. Moreover, in data set [3], the CC50 at 4 days was greater than 25 µM.
`Cn1cc2c(c1C(=O)Nc1ccc(F)c(F)c1)OCC(C)(Cc1ccnc(Cl)c1)NS2(=O)=O` (stereo not drawn) [Compound 190, 3-[(2-chloro-4-pyridyl)methyl]-N-(3,4-difluorophenyl)-3,7-dimethyl-1,1-dioxo-2,4-dihydropyrrolo[3,4-b][1,4,5]oxathiazepine-6-carboxamide] showed a melting point of 225 °C. In data set [1] (setting [4]), the half-maximal effective concentration (EC50) came to 6 nM. Also, the CC50 at 4 days in data set [3] is greater than 25 µM.
In turn, `Cc1cccc(CC2(C)COc3c(cn(C)c3C(=O)Nc3ccc(F)c(F)c3)S(=O)(=O)N2)n1` (racemic) [Compound 172, N-(3,4-difluorophenyl)-3,7-dimethyl-3-[(6-methyl-2-pyridyl)methyl]-1,1-dioxo-2,4-dihydropyrrolo[3,4-b][1,4,5]oxathiazepine-6-carboxamide] had a melting point of 206 °C. The EC50 in data set [1] (setting [4]) was found to be 74 nM. The molecule further yielded a CC50 at 4 days in data set [3] greater than 25 µM.
For `Cn1cc2c(c1C(=O)Nc1ccnc(Cl)c1)OC[C@H](C(C)(C)O)NS2(=O)=O` [Compound 146, (3R)—N-(2-chloro-4-pyridyl)-3-(1-hydroxy-1-methyl-ethyl)-7-methyl-1,1-dioxo-3,4-dihydro-2H-pyrrolo[3,4-b][1,4,5]oxathiazepine-6-carboxamide] the same measures were 246.6 °C, 55 nM and greater than 25 µM.
